Measurements published in patent publication US20240327408A1, “COMPOUNDS CONTAINING TETRAHYDRONAPHTHYRIDINONE OR TETRAHYDROPYRIDOPYRIMIDINONE SKELETON, PREPARATION METHOD THEREFOR AND PHARMACEUTICAL USE THEREOF” (CHINA PHARMACEUTICAL UNIVERSITY, priority 2021, published 2024).

Columns and labels:
hClpP = molecular target: T1, hClpP (Homo sapiens, UniProt Q16740); experiment: activating ClpP hydrolysis of FITC-casein (fluorescence kinetic detection); format: biochemical; conditions: hClpP 1 μM, FITC-Casein 4 μM, 37° C.
T1 construct: made in house
How it was run: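 hClpP at 1 μM final preincubated with compounds (assay-buffer dilutions 200 μM–2 nM, before mixing) 30 min at 37 °C, then 4 μM final FITC-casein added. Fluorescence read kinetically at 37 °C every 1 min for 15 min, duplicate wells.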

MV4; 11 cells = experiment: inhibiting the growth of MV4; 11 cells; format: cell-based; conditions: Homo sapiens

T1 sequence (Q16740 57-277): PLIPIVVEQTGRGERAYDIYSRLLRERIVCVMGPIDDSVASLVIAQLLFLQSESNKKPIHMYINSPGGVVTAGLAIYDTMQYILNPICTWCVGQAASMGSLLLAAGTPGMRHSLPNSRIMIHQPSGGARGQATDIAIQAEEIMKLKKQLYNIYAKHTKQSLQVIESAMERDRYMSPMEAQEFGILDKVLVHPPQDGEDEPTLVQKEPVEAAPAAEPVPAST

Structure (SMILES) | EC50 (hClpP) [nM] | IC50 (MV4; 11 cells) [nM]
O=c1c2c(n3ccnc3n1Cc1ccc(F)cc1F)CCN(Cc1ccccc1)C2 [Compound I-122, 7-benzyl-4-(2,4-difluorobenzyl)-6,7,8,9-tetrahydroimidazo[1,2-a]pyrido[3,4-e]pyrimidine-5(4H)-one] | < 1000 | < 1000
O=c1c2c(n3ccnc3n1Cc1ccc(F)cc1F)CCN(Cc1cccc(F)c1)C2 [Compound I-123, 7-(3-fluorobenzyl)-4-(2,4-difluorobenzyl)-6,7,8,9-tetrahydroimidazo[1,2-a]pyrido[3,4-e]pyrimidine-5(4H)-one] | < 1000 | < 1000
O=c1c2c(n3ccnc3n1Cc1ccc(F)cc1F)CCN(Cc1cccc(Cl)c1)C2 [Compound I-124, 7-(3-chlorobenzyl)-4-(2,4-difluorobenzyl)-6,7,8,9-tetrahydroimidazo[1,2-a]pyrido[3,4-e]pyrimidine-5(4H)-one] | < 1000 | < 1000
Cc1cccc(CN2CCc3c(c(=O)n(Cc4ccc(F)cc4F)c4nccn34)C2)c1 [Compound I-125, 7-(3-methylbenzyl)-4-(2,4-difluorobenzyl)-6,7,8,9-tetrahydroimidazo[1,2-a]pyrido[3,4-e]pyrimidine-5(4H)-one] | < 1000 | < 1000
N#Cc1cccc(CN2CCc3c(c(=O)n(Cc4ccc(F)cc4F)c4nccn34)C2)c1 [Compound I-126, 7-(3-cyanobenzyl)-4-(2,4-difluorobenzyl)-6,7,8,9-tetrahydroimidazo[1,2-a]pyrido[3,4-e]pyrimidine-5(4H)-one] | < 1000 | < 1000
O=c1c2c(n3ccnc3n1Cc1ccc(C(F)(F)F)cc1)CCN(Cc1ccccc1)C2 [Compound I-127, 7-benzyl-4-(4-trifluoromethylbenzyl)-6,7,8,9-tetrahydroimidazo[1,2-a]pyrido[3,4-e]pyrimidine-5(4H)-one] | < 1000 | < 1000
O=c1c2c(n3ccnc3n1Cc1ccc(C(F)(F)F)cc1)CCN(Cc1cccc(F)c1)C2 [Compound I-128, 7-(3-fluorobenzyl)-4-(4-trifluoromethylbenzyl)-6,7,8,9-tetrahydroimidazo[1,2-a]pyrido[3,4-e]pyrimidine-5(4H)-one] | < 1000 | < 1000
Cc1cccc(CN2CCc3c(c(=O)n(Cc4ccc(C(F)(F)F)cc4)c4nccn34)C2)c1 [Compound I-130, 7-(3-methylbenzyl)-4-(4-trifluoromethylbenzyl)-6,7,8,9-tetrahydroimidazo[1,2-a]pyrido[3,4-e]pyrimidine-5(4H)-one] | < 1000 | < 1000
N#Cc1cccc(CN2CCc3c(c(=O)n(Cc4ccc(C(F)(F)F)cc4)c4nccn34)C2)c1 [Compound I-131, 7-(3-cyanobenzyl)-4-(4-trifluoromethylbenzyl)-6,7,8,9-tetrahydroimidazo[1,2-a]pyrido[3,4-e]pyrimidine-5(4H)-one] | < 1000 | < 1000
Cc1ccc(Cn2c(=O)c3c(n4ccnc24)CCN(Cc2ccccc2)C3)cc1 [Compound I-132, 7-benzyl-4-(4-methylbenzyl)-6,7,8,9-tetrahydroimidazo[1,2-a]pyrido[3,4-e]pyrimidine-5(4H)-one] | < 1000 | < 1000
Cc1ccc(Cn2c(=O)c3c(n4ccnc24)CCN(Cc2cccc(F)c2)C3)cc1 [Compound I-133, 7-(3-fluorobenzyl)-4-(4-methylbenzyl)-6,7,8,9-tetrahydroimidazo[1,2-a]pyrido[3,4-e]pyrimidine-5(4H)-one] | < 1000 | < 1000
Cc1ccc(Cn2c(=O)c3c(n4ccnc24)CCN(Cc2cccc(Cl)c2)C3)cc1 [Compound I-134, 7-(3-chlorobenzyl)-4-(4-methylbenzyl)-6,7,8,9-tetrahydroimidazo[1,2-a]pyrido[3,4-e]pyrimidine-5(4H)-one] | < 1000 | < 1000
Cc1ccc(Cn2c(=O)c3c(n4ccnc24)CCN(Cc2cccc(C)c2)C3)cc1 [Compound I-135, 7-(3-methylbenzyl)-4-(4-methylbenzyl)-6,7,8,9-tetrahydroimidazo[1,2-a]pyrido[3,4-e]pyrimidine-5(4H)-one] | < 1000 | < 1000
Cc1ccc(Cn2c(=O)c3c(n4ccnc24)CCN(Cc2cccc(C#N)c2)C3)cc1 [Compound I-136, 7-(3-cyanobenzyl)-4-(4-methylbenzyl)-6,7,8,9-tetrahydroimidazo[1,2-a]pyrido[3,4-e]pyrimidine-5(4H)-one] | < 1000 | < 1000
CCc1ccc(Cn2c(=O)c3c(n4ccnc24)CCN(Cc2ccccc2)C3)cc1 [Compound I-137, 7-benzyl-4-(4-ethylbenzyl)-6,7,8,9-tetrahydroimidazo[1,2-a]pyrido[3,4-e]pyrimidine-5(4H)-one] | < 1000 | < 1000
CCc1ccc(Cn2c(=O)c3c(n4ccnc24)CCN(Cc2cccc(F)c2)C3)cc1 [Compound I-138, 7-(3-fluorobenzyl)-4-(4-ethylbenzyl)-6,7,8,9-tetrahydroimidazo[1,2-a]pyrido[3,4-e]pyrimidine-5(4H)-one] | < 1000 | < 1000
CCc1ccc(Cn2c(=O)c3c(n4ccnc24)CCN(Cc2cccc(Cl)c2)C3)cc1 [Compound I-139, 7-(3-chlorobenzyl)-4-(4-ethylbenzyl)-6,7,8,9-tetrahydroimidazo[1,2-a]pyrido[3,4-e]pyrimidine-5(4H)-one] | < 1000 | < 1000
CCc1ccc(Cn2c(=O)c3c(n4ccnc24)CCN(Cc2cccc(C)c2)C3)cc1 [Compound I-140, 7-(3-methylbenzyl)-4-(4-ethylbenzyl)-6,7,8,9-tetrahydroimidazo[1,2-a]pyrido[3,4-e]pyrimidine-5(4H)-one] | < 1000 | < 1000
CCc1ccc(Cn2c(=O)c3c(n4ccnc24)CCN(Cc2cccc(C#N)c2)C3)cc1 [Compound I-141, 7-(3-cyanobenzyl)-4-(4-ethylbenzyl)-6,7,8,9-tetrahydroimidazo[1,2-a]pyrido[3,4-e]pyrimidine-5(4H)-one] | < 1000 | < 1000
COc1ccc(Cn2c(=O)c3c(n4ccnc24)CCN(Cc2ccccc2)C3)cc1 [Compound I-142, 7-benzyl-4-(4-methoxybenzyl)-6,7,8,9-tetrahydroimidazo[1,2-a]pyrido[3,4-e]pyrimidine-5(4H)-one] | < 1000 | < 1000
COc1ccc(Cn2c(=O)c3c(n4ccnc24)CCN(Cc2cccc(F)c2)C3)cc1 [Compound I-143, 7-(3-fluorobenzyl)-4-(4-methoxybenzyl)-6,7,8,9-tetrahydroimidazo[1,2-a]pyrido[3,4-e]pyrimidine-5(4H)-one] | < 1000 | < 1000
COc1ccc(Cn2c(=O)c3c(n4ccnc24)CCN(Cc2cccc(Cl)c2)C3)cc1 [Compound I-144, 7-(3-chlorobenzyl)-4-(4-methoxybenzyl)-6,7,8,9-tetrahydroimidazo[1,2-a]pyrido[3,4-e]pyrimidine-5(4H)-one] | < 1000 | < 1000
COc1ccc(Cn2c(=O)c3c(n4ccnc24)CCN(Cc2cccc(C)c2)C3)cc1 [Compound I-145, 7-(3-methylbenzyl)-4-(4-methoxybenzyl)-6,7,8,9-tetrahydroimidazo[1,2-a]pyrido[3,4-e]pyrimidine-5(4H)-one] | < 1000 | < 1000
